Results reported in patent US20230128322A1, “SYK KINASE INHIBITORS AS TREATMENT FOR MALARIA” (Purdue Research Foundation, priority 2012, published 2023).
Entries after “also recorded” stand apart in the source; their conditions may differ. Structures can show the parent of a compound that is named as a salt.

Columns and labels:
[1] = cited from earlier work
band 3 [2] = assay: orthovanadate-induced band 3 tyrosine phosphorylation in erythrocytes; assay type: cell-based, human; conditions: 10 uM, 1 hour, then 2 mM orthovanadate
parasite in RBCs = assay: microscopy of Giemsa stained blood smears of treated infected RBCs; assay type: cell-based
Method: FIGS. 9A-9E are microscopy photographs of standard blood smears. Smears were prepared on glass slides, fixed with 100% methanol, and stained in 10% Giemsa modified stain diluted in PBS for 10 minutes at room temperature.
FIGS. 10A-D are microscopy photographs of standard blood smears. Smears were prepared on glass slides, fixed with 100% methanol, and stained in 10% Giemsa modified stain diluted in PBS for 10 minutes at room temperature.
FIGS. 11A-C are microscopy photographs of standard blood smears. Smears were prepared on glass slides, fixed with 100% methanol, and stained in 10% Giemsa modified stain diluted in PBS for 10 minutes at room temperature.

[3] = cited from earlier work; remark: listed apart in the source
[4] = system: P. falciparum Dd2-infected erythrocytes; assay: parasitemia of synchronous P. falciparum Dd2 cultures
malaria infected RBCs = assay: ex vivo parasitemia in blood from malaria infected Vietnamese patients (PCR); assay type: cell-based, human; conditions: 48 hours of incubation, various concentrations
[5] = system: P falciparum strain Palo Alto; assay: parasitemia / re-infection in P. falciparum-infected RBC cultures; assay type: cell-based, Plasmodium falciparum; conditions: for parasitemia level as % of the initial level: added 24 hours after start of culture, 72 hours after treatment; for effect on level of parasitemia during second cycle (re-infection): all concentrations examined (0.1-10 μM); for effect on level of parasitemia during first parasite cycle: first 48 hours, inhibitor added 24 hours after start
Method: Inhibition of Syk in RBCs. Infected and non-infected RBCs were treated with Syk kinase inhibitor 11 (FIG. 2) at different concentrations and at different times after the start of the cultures. Cultivation of P. falciparum-infected RBCs. Freshly drawn blood (Rh+) from healthy adults of both sexes was used following informed consent in all studies. […] To assess total parasitemia and the relative numbers of ring and trophozoite stage cells, slides were prepared from cultures at the indicated times and stained with Diff-Quik reagent prior to analysis. 1000 cells were then scored by microscopic analysis of the cell staining patterns. To evaluate the potential of Syk kinase inhibitors as a therapy for treating malaria, the effect of Syk kinase inhibitors on preventing re-infection of additional erythrocytes was evaluated. Based on the hypothesis that destabilization of the RBCM is beneficial to the parasite during egress, blocking RBCM destabilization by inhibiting Syk-mediated tyrosine phosphorylation of band 3 may result in a reduction in the spread of infected cells. To test this, erythrocyte cultures were infected with P. falciparum and then treated 24 hours later with the Syk kinase inhibitor (0, 0.1, 1, and 10 uM concentrations) (FIG. 2). In this set of experiments Syk kinase inhibitors have been added 24 hours after the start of the parasite cultures. Data are means of 2 or 4 experiments with standard deviations. The data presented represents the mean of two to four experiments. The level of parasitemia was then calculated at 24, 48, 72 and 96 hours after addition of the Syk kinase inhibitor. The efficiency of the Syk kinase inhibitor at different stages of the parasite development cycle was examined. […] Growth inhibition was calculated as a % re-invasion rate relative to untreated cultures. […] However, when infected cultures are treated at 24 hours after the initial infection, nearly 100% of parasite re-infection is inhibited. This time point was confirmed in a flow cytometric analysis where the number of merozoites released from isolated schizonts, were measured with or without Syk kinase inhibitor treatment. […] This is consistent with our proposed mechanism of the Syk kinase inhibitor blocking the necessary destabilization of the erythrocyte cell membrane required for egress. Inhibition of Syk in RBCs. Infected and non-infected RBCs were treated with Syk kinase inhibitor IV (FIG. 6) at different concentrations and at different times after the start of the cultures. Cultivation of P. falciparum-infected RBCs. Freshly drawn blood (Rh+) from healthy adults of both sexes was used following informed consent in all studies. […] To assess total parasitemia and the relative numbers of ring and trophozoite stage cells, slides were prepared from cultures at the indicated times and stained with Diff-Quik reagent prior to analysis, 1000 cells were then scored by microscopic analysis of the cell staining patterns. To test this, erythrocyte cultures were infected with P. falciparum and then treated 24 hours later with the Syk kinase inhibitor (0, 0.1, and 10 uM concentrations) (FIG. 6). The data presented represents the mean of two to four experiments. The level of parasitemia was then calculated at 24, 48, 72 and 96 hours after addition of the Syk kinase inhibitor.

band 3 [6] = assay: band 3 tyrosine phosphorylation in parasite cultures (Western blot); assay type: cell-based, human; conditions: 10 μM added at 12 hours; at 48 hours post infection
Method: Immunoblot Analysis. […] The nitrocellulose membranes were then probed using either fluorescein-5'-maleimide (0.25 mg/ml) (Pierce) or anti-phosphotyrosine antibody (Santa Cruz, Calif.) and anti-Syk (Santa Cruz, Calif.) antibodies and with anti-band 3 (Sigma Aldrich). The blots were then analyzed using an 800 nm laser scanner (Odyssey, Licor, USA). […] In this set of experiments, Syk kinase inhibitors were added 12 hours after the start of the parasite cultures. The content of band 3 was measured by western blotting. The percent of band 3 phosphorylation was also measured. […] Band 3 phosphorylation levels have been normalized for the band 3 content ([…] blot). The expectation is that band 3 tyrosine phosphorylation would also be diminished in the Syk kinase inhibitor treated cultures. This is indeed the case. The % of band tyrosine phosphorylation was measured via Western blotting with an anti-phosphotyrosine antibody. […] The cultures were then normalized to the vandate induced level of phosphorylation. […] This is consistent with the hypothesis that just prior to egress the parasite would phosphorylate band 3, disrupt its interaction with ankyrin and result in a destabilized membrane that is more susceptible to breech as required during egress.

[7] = system: artemisinin resistant parasites in malaria infected blood; assay: ex vivo parasite growth in artemisinin resistant blood of patient 4 (PCR); assay type: cell-based, human
Method: A blood sample was acquired from patient 4 prior to treatment with artemisinin and 13 day after treatment with artemisinin. […] These parasites are considered artemisinin resistant since there is a persistent parasitemia in the patient, even after artemisinin therapy.
Upon arrival of each sample, malaria infected RBCs were separated from plasma and leukocytes by three washes in wash medium (RPMI 1640 medium containing 2 mM glutamine, 24 mM NaHCO, 25 mM Hepes, 20 mM glucose, and 32 mg/m gentamicin, pH 6.80).
Smears of infected erythrocytes were obtained to assess initial parasitemia. Slides were fixed in 100% methanol and stained with 1/10 dilution of Giemsa solution, incubated for 10 min at room temperature, washed with water, dried, and observed under oil immersion lens (100×) for microscopic analysis. An aliquot was also saved for PCR analysis.
Malaria infected erythrocytes were re-suspended at 2% hematocrit in growth medium consisting of RPMI 1640 supplemented with 2 mM glutamine, 24 mM NaHCO, 25 mM Hepes, 20 mM glucose, and […] gentamicin, pH 6.80 and 10% heat inactivated human serum. Infected blood was aliquoted into 96 well plates pretreated with Syk kinase inhibitor H and incubated at 37° C. in CO2 incubation bags. After 48 hours of incubation, the cultures were processed and analyzed by PCR.

[8] = system: P. falciparum-infected RBCs; assay: vesiculation (microparticle release) of infected RBCs; assay type: cell-based, human; conditions: 10 μM, added 12 hours after infection
Method: Micro-vesicle Quantification. Infected and non-infected RBCs were washed 3× in RPMI 1640-HEPES medium and then resuspended at 10% hematocrit in the same medium containing a protease inhibitor cocktail (Sigma-Aldrich). […] Cells were then centrifuged at 2000×g to pellet the RBCs followed by a centrifugation step at 20,000×g for 10 minutes to pellet the RBC membranes. RBC vesicles present in the supernatant were labeled with anti-glycophorin A antibodies or with eosine-maleimide for labeling band 3, and quantified using a FACSCalibur cytometer (BD Biosciences) and the Cell Quest analysis software (BD Biosciences). Vesicles were selected using forward and side light scatter (FSC and SSC signals set to logarithmic amplification). A total of 40,000 events were analyzed. The amount of MPs released by infected RBCs was also measured. […] MPs were isolated from the supernatant by differential centrifugation (as in the INODs paper) and their amount was estimated measuring their band 3 content ([…] blots). Data are mean of 2 experiments with SD (in the second experiment we could measure only the ast times). […] To measure vesiculation, microparticles were isolated from the culture supernatants and quantified based on their band 3 content (determined by Western blotting) [Pantaleo, Free Radic Biol Med 2012, 52: 527-536].

## COc1ccc2c(c1)c(C=C1C(=O)Nc3ccc(S(N)(=O)=O)cc31)cn2CCCO [Compd 18]
[1]
  Solubility: <0.1 mg·L

## Cc1ccc(NC(=O)c2ccc(CN3CCN(C)CC3)cc2)cc1Nc1nccc(-c2cccnc2)n1 [Imatinib mesylate, 4-[(4-Methyl-1-piperazinyl)methyl]-N-[4-methyl-3-[[4-(3-pyridinyl)-2-pyrimidinyl]amino]-phenyl]benzamide methanesulfonate]
Band 3 [2]
  band 3 tyrosine phosphorylation: completely inhibited
Parasite in RBCs; 8 μM, up to 121 hour
  parasite development in blood smears: able to delay the lifecycle of the parasite
Parasite in RBCs; 10 μM, listed as Gleevec, methanesulfonate
  parasite morphology in blood smears: immature trophs from the first cycle that have not matured; also recorded: merozoites stuck or trapped inside the RBCs that cannot egress; also recorded: pyknotic parasites, or dead parasites in condensed form
[3]; oral administration
  time post-dose at which Cmax is achieved: 2 to 4 h
[4]; first 44 hours, added 20 hours after start
  parasitemia during the first cycle: did not cause significant changes in parasitemia
[4]; higher concentrations
  re-infection at the second cycle: fail to reinfect healthy erythrocytes
  viability after 4 cycles of growth: remain nonviable
[4]; starting at 8 μM
  effect on parasite cycles: able to delay the cycles of the parasite
Malaria infected RBCs
  parasitemia of infected patient blood: effective at reducing the parasitemia

## Cc1ccc(NC(=O)c2ccc(CN3CCNCC3)cc2)cc1Nc1nccc(-c2cccnc2)n1 [N-desmethyl derivative]
[3]; humans
  plasma AUC of metabolite as % of the AUC for imatinib: about 15%
[3]; oral administration in healthy volunteers
  elimination half-life: ~40 h

## NCCNc1ncc(C(N)=O)c(Nc2cccc(C(F)(F)F)c2)n1 [Syk kinase inhibitor II, 2-(2-Aminoethylamino)-4-(3-trifluoromethylanilino)-pyrimidine-5-carboxamide]
[5]; 1 μM
  parasitemia level as % of the initial level: ~80%
[5]; 1 μM, added at 40 and 48 hours post initial infection
  inhibition of parasite re-infection: little impact
[5]; 10 μM
  parasitemia level as % of the initial level: ~80%
[5]; Plasmodium falciparum, 1 μM, added 24 hours after the initial infection, read-out: inhibition of parasite re-infection
  inhibition at 1 µM: ~100%
[5]
  effect on level of parasitemia during second cycle (re-infection): significantly dropped the level of parasitemia
  effect on level of parasitemia during first parasite cycle: no effect
[5]; pre-treatment of new culture
  effect when culture is treated prior to infection with normal merozoites: no effect in blocking the parasitemia
Band 3 [6]
  maximum level of tyrosine phosphorylated band 3 (relative to 2 mM vanadate): ~35%
[7]; Homo sapiens, sample pre-treatment, parasitemia 0.1%, read-out: IC50 Syk kinase inhibitor II
  IC50: < 600 nM
[7]; pre- and post-artemisinin treatment
  elimination of parasites in malaria infected blood: completely eliminate parasites
[8]
  inhibition of vesiculation vs untreated parasite cultures: ~50%
Malaria infected RBCs
  parasitemia of infected patient blood: completely eliminating parasitemia

## COc1ccc(-c2cc3nccn3c(NC3N=CC=CC3C(N)=O)n2)cc1OC (centres unmarked) [Syk kinase inhibitor IV]
[5]; 10 μM
  parasitemia level as % of the initial level: ~80%
[5]
  effect on level of parasitemia during second cycle (re-infection): significantly dropped the level of parasitemia
  effect on level of parasitemia during first parasite cycle: did not cause changes of parasitemia
